Like-named read-outs stand apart in the source and are kept apart here.
Tests used:
GSTPH(GRP) = target: T1, GSTPH(GRP) (Mus musculus, UniProt O08967); assay: Competition of [32P]PI(3,4,5)P3 binding to GST-PH by inositol phosphate head groups; parameters: species or system murine
T1 construct: residues 239 to 399 (PH domain); made in house; host or cells: bacteria
T1 sequence (O08967 239-399): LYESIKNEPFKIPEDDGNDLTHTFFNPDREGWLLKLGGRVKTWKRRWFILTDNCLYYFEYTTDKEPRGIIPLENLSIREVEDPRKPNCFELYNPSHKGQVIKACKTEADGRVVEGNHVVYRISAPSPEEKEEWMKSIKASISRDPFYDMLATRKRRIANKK
Description: To generate the GST fusion proteins, PCR reactions using the primers: […] (SEQ ID NO:9) and […] (SEQ ID NO:10) for the GST-N construct, […] (SEQ ID NO:11) and […] (SEQ ID NO:12) for the GST-Sec7 construct, […] (SEQ ID NO:13) and […] (SEQ ID NO:14) for the GSTPH construct, and […] (SEQ ID NO:15) and […] (SEQ ID NO:16) for the GSTGRP constructs. The sequences of the PCR products were verified, and cloned into pGEX-5X-3 in the EcoRI and Xba 1 sites. The bacteria were lysed and the fusion proteins were bound to gluthathione agarose according to standard procedures. Elution was effected by incubation of the beads with one volume 20 mM Hepes, 100 mM NaCl, 1 mM dithiotreitol (H buffer) supplemented with 10 mM gluthatione and 1% sodium cholate, and the eluate was dialyzed extensively against H buffer. For binding assays, protein was bound to nitrocellulose using a BIO-RAD BIO-DOT™ apparatus, using 150 pmol per well for binding assays and 7.5 pmol for competition assays. The nitrocellulose was washed in assay buffer, and 3 mm circles of the filters containing the protein were cut out and incubated in […] assay buffer with the relevant lipids and competitors for 2 h under constant agitation. The filters were washed four times with 1 mL assay buffer and counted in a scintillation counter.
The specificity of the GRP PH domain for binding [^32 P]PI(3,4,5,)P3 was also examined with respect to competition by the inositol phosphate head groups of the phosphoinositides. […] More specifically, 25,000 cpm of [^32 P]PI(3,4,5)P3 was incubated with varying concentrations of inositol 1 ,3,4,5P4 and bound radioactivity determined. The amount of radioactivity bound was calculated as percent of that bound in the absence of competitor. The values are means of quadruplicate measurements, and the error bars are standard deviations. The lack of inhibition by the latter two phosphoinositides is particularly striking since they carry the same charge as the inhibitor […] The concentration of inositol 1,3,4,5-P4 that inhibited binding of [^32 p]PI(3,4,5,)P3 half maximally was about 3-6 μM (FIG. 5A). Taken together, the data in FIGS. 4 and 5 indicate extraordinary specificity of the GRP PH domain for PI(3,4,5)P3. […] The binding to GST fusion proteins containing amino acids 462-569 of murine Sos or amino acid 13-115 of murine IRS-1 was assayed using 150 pmoles of protein bound to the filters. Competition of binding to 7.5 pmoles of GST-PH was measured in the presence of 100 μM of the competitors. The values were calculated as in (A), and are means of quadruplicate measurements and the error bars represent standard deviations.

GRP = target: T2, GRP (Mus musculus, UniProt O08967); assay: Inhibition by inositol phosphates of PtdIns(3,4,5)P3-stimulated GRP-mediated ARF1 exchange; assay type: biochemical; details: 100 μM inositol phosphate, 0.05% cholate and 0.05% CHAPS
T2 construct: GST (N, cleaved yes); made in house; host or cells: GRP from pGEX-4T; ARF1 from baculovirus-infected Sf-9 cells
T2 sequence (O08967 1-399): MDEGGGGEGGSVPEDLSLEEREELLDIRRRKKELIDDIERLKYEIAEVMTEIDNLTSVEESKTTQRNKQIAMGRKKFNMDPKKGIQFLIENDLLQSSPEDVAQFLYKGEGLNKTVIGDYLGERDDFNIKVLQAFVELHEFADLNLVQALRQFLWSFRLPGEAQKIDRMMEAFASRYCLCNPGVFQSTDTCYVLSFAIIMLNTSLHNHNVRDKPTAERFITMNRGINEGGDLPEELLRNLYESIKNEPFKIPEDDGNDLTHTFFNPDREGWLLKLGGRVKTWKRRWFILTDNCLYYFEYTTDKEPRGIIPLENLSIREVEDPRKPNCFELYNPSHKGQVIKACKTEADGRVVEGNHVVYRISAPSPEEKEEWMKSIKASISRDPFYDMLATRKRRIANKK

PH domain of PLCγ1 = details: cited from earlier work
PH domain of GRP [1] = target: T3, PH domain of GRP (Mus musculus, UniProt O08967); assay: Binding of [3H]dioctanoyl PtdIns(3,4,5)P3 to GST-PH of GRP; parameters: GST fused to the PH region of GRP (amino acids 239-399); made in house; host or cells: bacteria
T3 sequence (O08967 239-399): T1 sequence (O08967 239-399)
Experimental: Binding assays were performed as described in (Rameh, L. E. et al., J. Biol. Chem., In Press). Briefly, GST fused to the PH region of GRP (amino acids 239-399) was bound to glutathione immobilized on agarose beads (Sigma). Synthetic [^3 H]-labeled diotanoyl PtdIns(3,4,5)P3 was added, and after one hour the beads were separated from the supernatant by centrifugation. The amount of [^3 H]-PtdIns(3,4,5)P3 bound to the PH domain was calculated by subtracting the amount of free [^3 H] present in supernatants from GST-GRP from the amount of free [^3 H] in supernatants from control GST. The data was fitted to the equation [bound]=Bmax×[free]/(KD + [free]) by least squares curve fit. For the competition assays the beads containing the GST-fusion proteins were incubated with 2.5 μM[^3 H]-labeled dioctanoyl PtdIns(3,4,5)P3 bound was calculated based on the amount of [^3 H] bound to the beads in the absence of competitor. […]
The data depicted in FIG. 8 indicate that receptor signaling through PI3-kinases, which generates PtdIns(3,4,5)P3, may specifically regulate ARF proteins through GRP. In order to further test this, the relative binding affinities of PtdIns(3,4,5)P3 versus PtdIns (4,5)P2, which is constitutively present in cell membranes, for the PH domain of GRP were determined. […] These experiments show high affinity binding of this polyphosphoinositide,with a calculated Kd=0.5 μM.

PH domain of GRP [2] = target: T3, PH domain of GRP; assay: Competition for [3H]dioctanoyl PtdIns(3,4,5)P3 binding to the PH domain of GRP; parameters: GST fused to the PH region of GRP (amino acids 239-399); made in house; host or cells: bacteria; details: identical fatty acyl side chains (dioctanoyl)
Experimental: Binding assays were performed as described in (Rameh, L. E. et al., J. Biol. Chem., In Press). Briefly, GST fused to the PH region of GRP (amino acids 239-399) was bound to glutathione immobilized on agarose beads (Sigma). Synthetic [^3 H]-labeled diotanoyl PtdIns(3,4,5)P3 was added, and after one hour the beads were separated from the supernatant by centrifugation. The amount of [^3 H]-PtdIns(3,4,5)P3 bound to the PH domain was calculated by subtracting the amount of free [^3 H] present in supernatants from GST-GRP from the amount of free [^3 H] in supernatants from control GST. The data was fitted to the equation [bound]=Bmax×[free]/(KD + [free]) by least squares curve fit. For the competition assays the beads containing the GST-fusion proteins were incubated with 2.5 μM[^3 H]-labeled dioctanoyl PtdIns(3,4,5)P3 bound was calculated based on the amount of [^3 H] bound to the beads in the absence of competitor. The total [^3 H] bound to the GST control was less then 0.5% of the total [^3 H] bound to GRP PH domain. The data was fitted to the equation % bound=100-n×L/Klapp +L) where n is the % specific binding, L is the concentration of unlabeled lipid added and Klapp is the apparent competitive dissociation constant. The rations of the apparent dissociation constants accurately reflect the ratios of the true dissociation constants under the present experimental conditions (Rameh, L. E. et al., J. Biol. Chem., In Press).
The data depicted in FIG. 8 indicate that receptor signaling through PI3-kinases, which generates PtdIns(3,4,5)P3, may specifically regulate ARF proteins through GRP. In order to further test this, the relative binding affinities of PtdIns(3,4,5)P3 versus PtdIns (4,5)P2, which is constitutively present in cell membranes, for the PH domain of GRP were determined. A GST fusion protein of the PH domain of GRP was incubated with various concentrations of synthetic [^3 H]dioctanoyl PtdIns(3,4,5)P3 and binding was determined (FIG. 9A). These experiments show high affinity binding of this polyphosphoinositide,with a calculated Kd=0.5 μM.

O=P(O)(O)O[C@@H]1[C@H](O)[C@H](O)[C@@H](OP(=O)(O)O)[C@H](OP(=O)(O)O)[C@H]1O [Ins(1,4,5)P3, D-myo-inositol 1,4,5 trisphosphate]
inhibition of [^32 P]PI(3,4,5)P3 binding to GST-PH(GRP) (GSTPH(GRP); 100 μM competitor): little or no effect
binding of inositol phosphate to GRP polypeptides (GSTPH(GRP); statement in the description): not
inhibition of PtdIns(3,4,5)P3-stimulated GRP-mediated ARF1 guanine nucleotide exchange (GRP): failed to inhibit
interaction with isolated PH domain of PLCγ1 (PH domain of PLCγ1): high affinity

CCCCCCCC(=O)OCC(COP(=O)(O)O[C@H]1[C@H](O)[C@@H](OP(=O)(O)O)[C@H](OP(=O)(O)O)[C@@H](OP(=O)(O)O)[C@H]1O)OC(=O)CCCCCCC (stereo partly shown) [[^3 H]dioctanoyl PtdIns(3,4,5)P3]
Kd (PH domain of GRP [1]): 510 nM
Kd (PH domain of GRP [1]; synthetic [^3 H]dioctanoyl PtdIns(3,4,5)P3): 500 nM

CCCCCCCC(=O)OC[C@H](COP(=O)(O)O[C@H]1[C@H](O)[C@@H](OP(=O)(O)O)[C@H](OP(=O)(O)O)[C@@H](OP(=O)(O)O)[C@H]1O)OC(=O)CCCCCCC [dioctanoyl PtdIns(3,4,5)P3]
affinity, fold higher compared to PtdIns(4,5)P2 (PH domain of GRP [2]): 50-100 fold

Reference: patent publication US6194173A, “Binding proteins for phosphoinositides, GRP1 or general receptor 1 for phophoinositide” (priority 1999, dated 2001)
